According to patent US11753446B2, “Beta-hairpin peptidomimetics” (POLYPHOR AG, priority 2014, dated 2023):
Read-outs that look alike come from different tables or passages of the source. Where a SMILES comes first, the peptide text is derived from it. Bridges are numbered along the chain shown (N, C = ends). Triazole bridges read from a SMILES are 1,4-linked. [ ]: non-standard residue; d: D form. Aha = [N-]=[N+]=NCC[C@H](N)C(=O)O; Tle = CC(C)(C)[C@H](N)C(=O)O; dDab = NCC[C@@H](N)C(=O)O; NMeA = CN[C@@H](C)C(=O)O; Orn = NCCC[C@H](N)C(=O)O; Pra = C#CC[C@H](N)C(=O)O; Dab = NCC[C@H](N)C(=O)O; Dap = NC[C@H](N)C(=O)O

Key:
[1] = tested on: Acinetobacter baumannii DSM 30008; type: cell-based
Outline: (§1)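 Peptide activity was tested by NCCLS broth microdilution with slight modifications. Bacteria were diluted in cation-adjusted Mueller-Hinton II broth to approximately 10^6 CFU/mL against a 0.5 McFarland standard. They were then exposed to two-fold serial peptide dilutions in broth containing 0.002% final polysorbate 80.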

[2] = tested on: Escherichia coli ATCC 25922; type: cell-based
Outline: as §1

[3] = tested on: Klebsiella pneumoniae ATCC 13883; type: cell-based
Outline: as §1

[4] = tested on: human red blood cells (hRBC); experiment: Hemolysis: hemolytic activity at 100 μg/mL, 1 h at 37° C.
Outline: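 Peptides at 100 μg/mL incubated with washed 20% (v/v) human erythrocytes (~0.9×10^9 cells/mL) for 1 h at 37 °C with shaking. Released hemoglobin read at OD 540 nm in supernatant; 0% and 100% lysis from PBS/0.001% acetic acid and 2.5% Triton X-100.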

[5] = Mueller-Hinton II broth, 18-20 hours at 35° C.
[6] = 100 μg/mL, 20% hRBC, 1 h at 37° C.

Structure (SMILES)	Acinetobacter baumannii DSM 30008 MIC ([1]; DSM 30008)	Escherichia coli ATCC 25922 MIC ([2]; ATCC 25922)	Klebsiella pneumoniae ATCC 13883 MIC ([3]; ATCC 13883)	Hemolysis at 100 μg/mL ([4]; red cells of human, 1 h, 100)	Acinetobacter baumannii DSM 30008 MIC [1, 5]	Escherichia coli ATCC 25922 MIC [2, 5]	Klebsiella pneumoniae ATCC 13883 MIC [3, 5]	Hemolysis at 100 μg/mL [4, 6]
CC(C)C[C@@H]1NC(=O)[C@H](CCCNC(=N)N)NC(=O)[C@@H](CCN)NC(=O)[C@H](C(C)C)NC(=O)[C@H](C)NC(=O)[C@H](C(C)C)NC(=O)[C@@H]2CSSC[C@H](NC(=O)[C@H](Cc3ccc(O)cc3)NC(=O)[C@H](CO)NC1=O)C(=O)N[C@@H](CCCN)C(=O)NCC(=O)N[C@@H](CCN)C(=O)N[C@@H](Cc1c[nH]c3ccccc13)C(=O)N2 [Example 40, cyclo(-Leu-Ser-Tyr-Cys-Orn-Gly-Dab-Trp-Cys-Val-Ala-Val-^DDab-Arg-)] (HELM PEPTIDE1{A.V.[NCC[C@@H](N[*:1])C(=O)[*:2]].R.L.S.Y.C.[Orn].G.[Dab].W.C.V}$PEPTIDE1,PEPTIDE1,8:R3-13:R3|PEPTIDE1,PEPTIDE1,1:R1-14:R2$$$V2.0)	4 µg/mL	4 µg/mL	2 µg/mL	4%				
CC(C)C[C@@H]1NC(=O)[C@H](CN)NC(=O)[C@@H](CCN)NC(=O)[C@H](C(C)C)NC(=O)[C@@H]2CSSC[C@H](NC1=O)C(=O)N[C@@H](Cc1ccc(O)cc1)C(=O)N[C@@H](CC(N)=O)C(=O)N[C@@H](CCCN)C(=O)N[C@H](CCN)C(=O)N[C@@H](CCN)C(=O)N[C@@H](Cc1c[nH]c3ccccc13)C(=O)N[C@@H](CO)C(=O)N[C@@H](Cc1ccc(O)cc1)C(=O)N2 [Example 68, cyclo(-Leu-Cys-Tyr-Asn-Orn-^DDab-Dab-Trp-Ser-Tyr-Cys-Val-^DDab-Dap-)] (cyclo(CV[dDab][Dap]LCYN[Orn][dDab][Dab]WSY); disulfide 1-6)	1.25 µg/mL	0.75 µg/mL	0.5 µg/mL	1%				
CC(C)[C@@H]1NC(=O)[C@H](C)NC(=O)[C@@H](C)NC(=O)[C@H](CO)NC(=O)[C@@H]2CC(=O)NCC[C@H](NC1=O)C(=O)N[C@@H](Cc1ccc(O)cc1)C(=O)N[C@@H](CCN)C(=O)N[C@@H](CCN)C(=O)N[C@H](CCN)C(=O)N[C@@H](CCN)C(=O)N[C@@H](Cc1c[nH]c3ccccc13)C(=O)N[C@@H](CCN)C(=O)N[C@@H](C(C)(C)C)C(=O)N2 [Example 30, cyclo(-Val-Dab-Tyr-Dab-Dab-^DDab-Dab-Trp-Dab-tBuGly-Asp-Ser-^DAla-Ala-)] (HELM PEPTIDE1{A.V.[Dab].Y.[Dab].[Dab].[NCC[C@@H](N[*:1])C(=O)[*:2]].[Dab].W.[Dab].[CC(C)(C)[C@H](N[*:1])C(=O)[*:2]].D.S.[dA]}$PEPTIDE1,PEPTIDE1,3:R3-12:R3|PEPTIDE1,PEPTIDE1,1:R1-14:R2$$$V2.0)	8 µg/mL	1 µg/mL	2 µg/mL	1%				
CCC[C@@H]1NC(=O)[C@H](CCCNC(=N)N)NC(=O)[C@@H](CCN)NC(=O)[C@H](C(C)C)NC(=O)[C@@H]2CSSC[C@H](NC1=O)C(=O)N[C@@H](Cc1ccc(O)cc1)C(=O)N[C@@H](CC(N)=O)C(=O)N[C@@H](CCCN)C(=O)N[C@H](CCN)C(=O)N[C@@H](CCN)C(=O)N[C@@H](Cc1c[nH]c3ccccc13)C(=O)N[C@@H](CO)C(=O)N[C@@H](Cc1ccc(O)cc1)C(=O)N2 [Example 60, cyclo(-Nva-Cys-Tyr-Asn-Orn-^DDab-Dab-Trp-Ser-Tyr-Cys-Val-^DDab-Arg-)] (HELM PEPTIDE1{C.V.[NCC[C@@H](N[*:1])C(=O)[*:2]].R.[Nva].C.Y.N.[Orn].[NCC[C@@H](N[*:1])C(=O)[*:2]].[Dab].W.S.Y}$PEPTIDE1,PEPTIDE1,1:R3-6:R3|PEPTIDE1,PEPTIDE1,1:R1-14:R2$$$V2.0)	0.75 µg/mL	1 µg/mL	1 µg/mL	1%				
CC(C)C[C@@H]1NC(=O)[C@H](CCCNC(=N)N)NC(=O)[C@H]2CCCN2C(=O)[C@H](C(C)C)NC(=O)[C@@H]2CSSC[C@H](NC1=O)C(=O)N[C@@H](Cc1ccc(O)cc1)C(=O)N[C@@H](C)C(=O)N[C@@H](CCN)C(=O)N[C@@H](CCN)C(=O)N[C@@H](CCN)C(=O)N[C@@H](Cc1c[nH]c3ccccc13)C(=O)N[C@@H](C)C(=O)N[C@@H](C(C)C)C(=O)N2 [Example 1, cyclo(-Leu-Cys-Tyr-Ala-Dab-Dab-Dab-Trp-Ala-Val-Cys-Val-^DPro-Arg-)] (HELM PEPTIDE1{A.[Dab].[Dab].[Dab].W.A.V.C.V.[dP].R.L.C.Y}$PEPTIDE1,PEPTIDE1,8:R3-13:R3|PEPTIDE1,PEPTIDE1,1:R1-14:R2$$$V2.0)					0.75 µg/mL	2 µg/mL	1 µg/mL	5%
CC(C)C[C@@H]1NC(=O)[C@H](CCN)NC(=O)[C@@H](CCN)NC(=O)[C@H]([C@@H](C)O)NC(=O)[C@@H]2CSSC[C@H](NC1=O)C(=O)N[C@@H](Cc1ccc(O)cc1)C(=O)N[C@@H](CC(N)=O)C(=O)N[C@@H](CCCN)C(=O)N[C@H](CCN)C(=O)N[C@@H](CCN)C(=O)N[C@@H](Cc1c[nH]c3ccccc13)C(=O)N[C@@H](CO)C(=O)N[C@@H](C(C)(C)C)C(=O)N2 [Example 6, cyclo(-Leu-Cys-Tyr-Asn-Orn-^DDab-Dab-Trp-Ser-tBuGly-Cys-Thr-^DDab-Dab-)] (cyclo(CT[dDab][Dab]LCYN[Orn][dDab][Dab]WS[Tle]); disulfide 1-6)					0.5 µg/mL	0.5 µg/mL	0.5 µg/mL	5%
CC[C@H](C)[C@@H]1NC(=O)[C@@H]2CCCN2C(=O)[C@@H](CCN)NC(=O)[C@H](CO)NC(=O)[C@@H]2CSSC[C@H](NC1=O)C(=O)N[C@@H](Cc1ccc(O)cc1)C(=O)N[C@@H](CCN)C(=O)N[C@@H](CCCN)C(=O)N[C@H](CCN)C(=O)N[C@@H](CCN)C(=O)N[C@@H](Cc1c[nH]c3ccccc13)C(=O)N[C@@H](CCN)C(=O)N[C@@H](C(C)(C)C)C(=O)N2 [Example 14, cyclo(-Ile-Cys-Tyr-Dab-Orn-^DDab-Dab-Trp-Dab-tBuGly-Cys-Ser-^DDab-Pro-)] (cyclo(CS[dDab]PICY[Dab][Orn][dDab][Dab]W[Dab][Tle]); disulfide 1-6)	1 µg/mL	0.5 µg/mL	1 µg/mL	1%				
CC(C)C[C@@H]1NC(=O)[C@H](CCCNC(=N)N)NC(=O)[C@@H](CCN)NC(=O)[C@H](Cc2ccc(O)cc2)NC(=O)[C@@H]2CSSC[C@H](NC1=O)C(=O)N[C@@H](Cc1ccc(O)cc1)C(=O)N[C@@H](C)C(=O)N[C@@H](CCCN)C(=O)N[C@H](CCN)C(=O)N[C@@H](CCN)C(=O)N[C@@H](Cc1c[nH]c3ccccc13)C(=O)N[C@@H](C)C(=O)N[C@@H](Cc1ccc(O)cc1)C(=O)N2 [Example 17, cyclo(-Leu-Cys-Tyr-Ala-Orn-^DDab-Dab-Trp-Ala-Tyr-Cys-Tyr-^DDab-Arg-)] (HELM PEPTIDE1{A.[Orn].[NCC[C@@H](N[*:1])C(=O)[*:2]].[Dab].W.A.Y.C.Y.[NCC[C@@H](N[*:1])C(=O)[*:2]].R.L.C.Y}$PEPTIDE1,PEPTIDE1,8:R3-13:R3|PEPTIDE1,PEPTIDE1,1:R1-14:R2$$$V2.0)	0.5 µg/mL	0.5 µg/mL	1 µg/mL	4%				
CC(C)[C@@H]1NC(=O)[C@@H]2CCCN2C(=O)[C@H](C)N(C)C(=O)[C@H](CO)NC(=O)[C@@H]2CSSC[C@H](NC1=O)C(=O)N[C@@H](Cc1ccc(O)cc1)C(=O)N[C@@H](CCN)C(=O)N[C@@H](CN)C(=O)N[C@H](CCN)C(=O)N[C@@H](CCN)C(=O)N[C@@H](Cc1c[nH]c3ccccc13)C(=O)N[C@@H](CCN)C(=O)N[C@@H](C(C)(C)C)C(=O)N2 [Example 9, cyclo(-Val-Cys-Tyr-Dab-Dap-^DDab-Dab-Trp-Dab-tBuGly-Cys-Ser-NMeAla-Pro-] (cyclo(CS[NMeA]PVCY[Dab][Dap][dDab][Dab]W[Dab][Tle]); disulfide 1-6)	1 µg/mL	0.5 µg/mL	0.5 µg/mL	2%				
CC(C)C[C@@H]1NC(=O)[C@H](CCCNC(=N)N)NC(=O)[C@@H](CCN)NC(=O)[C@H](C(C)(C)C)NC(=O)[C@@H]2CSSC[C@H](NC1=O)C(=O)N[C@@H](Cc1ccc(O)cc1)C(=O)N[C@@H](CC(N)=O)C(=O)N[C@@H](CCCN)C(=O)N[C@H](CCN)C(=O)N[C@@H](CCN)C(=O)N[C@@H](Cc1c[nH]c3ccccc13)C(=O)N[C@@H](CO)C(=O)N[C@@H](Cc1ccc(O)cc1)C(=O)N2 [Example 64, cyclo(-Leu-Cys-Tyr-Asn-Orn-^DDab-Dab-Trp-Ser-Tyr-Cys-tBuGly-^DDab-Arg-)] (cyclo(C[Tle][dDab]RLCYN[Orn][dDab][Dab]WSY); disulfide 1-6)					1.125 µg/mL	1 µg/mL	1 µg/mL	1%
CC(C)[C@@H]1NC(=O)[C@@H]2CCCN2C(=O)[C@H]2CCCN2C(=O)[C@H](CO)NC(=O)[C@@H]2CCn3cc(nn3)C[C@H](NC1=O)C(=O)N[C@@H](Cc1ccc(O)cc1)C(=O)N[C@@H](CCN)C(=O)N[C@@H](CN)C(=O)N[C@H](CCN)C(=O)N[C@@H](CCN)C(=O)N[C@@H](Cc1c[nH]c3ccccc13)C(=O)N[C@@H](CCN)C(=O)N[C@@H](C(C)(C)C)C(=O)N2 [Example 34, cyclo(-Val-Pra-Tyr-Dab-Dap-^DDab-Dab-Trp-Dab-tBuGly-Abu(4N3)-Ser-^DPro-Pro-)] (cyclo(V[Pra]Y[Dab][Dap][dDab][Dab]W[Dab][Tle][Aha]S[dP]P); triazole 2-11)	4 µg/mL	4 µg/mL	2 µg/mL	0%				
